# What was measured:
# [1] = biological target: T1, Amine oxidase [flavin-containing] A (Homo sapiens, UniProt P21397); assay: Inhibition of human MAO-A expressed in baculovirus infected BTI-TN-5B1-4 cells using p-tyramine as substrate at 100 uM incubated for 15 mins prior to substrate addition measured for 15 mins by Amplex red assay; conditions: for inhibition (INH): human, bti-tn-5b1-4, 0.25 h, 100 µM; for inhibition at 100 µM: BTI-TN-5B1-4, human, 0.25 h
# T1 sequence (P21397 whole entry): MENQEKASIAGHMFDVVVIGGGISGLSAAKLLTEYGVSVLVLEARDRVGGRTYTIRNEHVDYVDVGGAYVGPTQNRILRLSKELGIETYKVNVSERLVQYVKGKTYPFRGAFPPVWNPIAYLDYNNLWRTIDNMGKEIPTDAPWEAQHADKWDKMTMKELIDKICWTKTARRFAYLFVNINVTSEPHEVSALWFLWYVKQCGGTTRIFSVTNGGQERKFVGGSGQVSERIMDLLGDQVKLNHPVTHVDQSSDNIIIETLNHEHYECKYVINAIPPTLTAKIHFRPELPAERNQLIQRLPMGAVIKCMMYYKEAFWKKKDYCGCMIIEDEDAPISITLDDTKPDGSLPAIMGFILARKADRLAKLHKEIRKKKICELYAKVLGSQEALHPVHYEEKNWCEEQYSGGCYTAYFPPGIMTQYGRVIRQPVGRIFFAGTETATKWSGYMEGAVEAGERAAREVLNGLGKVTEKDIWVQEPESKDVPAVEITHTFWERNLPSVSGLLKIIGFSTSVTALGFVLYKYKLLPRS
# [2] = biological target: T2, Amine oxidase [flavin-containing] B (Homo sapiens, UniProt P27338); assay: Inhibition of human MAO-B expressed in baculovirus infected BTI-TN-5B1-4 cells using p-tyramine as substrate at 100 uM incubated for 15 mins prior to substrate addition measured for 15 mins by Amplex red assay; conditions: for inhibition (INH): human, bti-tn-5b1-4, 0.25 h, 100 µM; for inhibition at 100 µM: BTI-TN-5B1-4, human, 0.25 h
# T2 sequence (P27338 whole entry): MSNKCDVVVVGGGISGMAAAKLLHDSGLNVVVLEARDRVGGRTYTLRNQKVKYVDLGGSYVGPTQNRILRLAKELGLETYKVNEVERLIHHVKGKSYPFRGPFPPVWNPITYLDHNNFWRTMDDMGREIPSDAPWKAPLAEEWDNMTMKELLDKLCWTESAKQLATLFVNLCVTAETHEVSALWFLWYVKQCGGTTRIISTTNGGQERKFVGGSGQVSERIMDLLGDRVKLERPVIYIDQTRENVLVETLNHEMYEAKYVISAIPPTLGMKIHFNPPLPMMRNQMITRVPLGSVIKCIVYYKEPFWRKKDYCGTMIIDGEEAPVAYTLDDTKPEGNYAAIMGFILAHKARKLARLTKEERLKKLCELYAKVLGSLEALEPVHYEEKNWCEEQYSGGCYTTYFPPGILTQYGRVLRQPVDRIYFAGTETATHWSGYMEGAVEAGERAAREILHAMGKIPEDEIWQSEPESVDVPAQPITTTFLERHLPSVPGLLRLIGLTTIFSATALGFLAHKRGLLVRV
# [3] = biological target: T2, Amine oxidase [flavin-containing] B; assay: biochemical; assay type: cell-based, BTI-TN-5B1-4
# Description: Inhibition of human MAO-B expressed in baculovirus infected BTI-TN-5B1-4 cells using p-tyramine as substrate incubated for 15 mins prior to substrate addition measured for 15 mins by Amplex red assay
# Homo sapiens = species on record: Homo sapiens; assay: Selectivity ratio of IC50 for human MAO-A to IC50 for human MAO-B
# [4] = biological target: T2, Amine oxidase [flavin-containing] B; assay: Reversible inhibition of human MAO-B expressed in baculovirus infected BTI-TN-5B1-4 cells using p-tyramine as substrate at 70 uM incubated for 30 mins prior to substrate addition followed by 100 fold dilution measured for 15 mins by Amplex red assay; conditions: bti-tn-5b1-4, 0.25 h
# [5] = biological target: T1, Amine oxidase [flavin-containing] A; assay: Inhibition of human MAO-A expressed in baculovirus infected BTI-TN-5B1-4 cells using p-tyramine as substrate incubated for 15 mins prior to substrate addition measured for 15 mins by Amplex red assay
# [6] = biological target: T2, Amine oxidase [flavin-containing] B; assay: Reversible inhibition of human MAO-B expressed in baculovirus infected BTI-TN-5B1-4 cells using p-tyramine as substrate at 20 nM incubated for 30 mins prior to substrate addition followed by 100 fold dilution measured for 15 mins by Amplex red assay; conditions: bti-tn-5b1-4, 0.25 h, 0.02 µM
SMILES,inhibition (INH) [1],IC50 [3],Ratio IC50 (Homo sapiens),IC50 [5],further results
O=[N+]([O-])c1ccc(-c2csc(N/N=C\c3cccnc3)n2)cc1,Not Active,,,,inhibition (INH) [2]: Not Active
N#Cc1ccc(-c2csc(N/N=C\c3ccncc3)n2)cc1,Not Active,6750 nM,> 15,,inhibition (INH) [4]: Active
N#Cc1ccc(-c2csc(N/N=C\c3cccs3)n2)cc1,,153 nM,294,45000 nM,
C/C(=N/Nc1nc(-c2ccc(F)cc2)cs1)c1nccs1,,1210 nM,6.2,7550 nM,
C/C(=N/Nc1nc(-c2ccc(F)cc2F)cs1)c1nccs1,,13 nM,421,5460 nM,
C/C(=N/Nc1nc(-c2ccc(F)cc2)cs1)c1ccccc1,,351 nM,12,4180 nM,
C/C(=N/Nc1nc(-c2ccc([N+](=O)[O-])cc2)cs1)c1cccnc1,Not Active,,,,inhibition (INH) [2]: Not Active
C/C(=N/Nc1nc(-c2ccc(F)cc2)cs1)c1cc2ccccc2oc1=O,Not Active,,,,inhibition (INH) [2]: Not Active
C/C(=N/Nc1nc(-c2ccc(F)cc2)cs1)c1cccnc1,,1.7 nM,> 58800,,inhibition at 100 µM [1]: 40%; inhibition (INH) [6]: Active
O=[N+]([O-])c1ccc(-c2csc(N/N=C\c3cccs3)n2)cc1,,,,,inhibition at 100 µM [1]: 40%; inhibition at 100 µM [2]: 40%
Fc1ccc(-c2csc(N/N=C\c3c[nH]c4ccccc34)n2)c(F)c1,,529 nM,29,15300 nM,
O=[N+]([O-])c1ccc(-c2csc(N/N=C\c3cccc4ccccc34)n2)cc1,Not Active,,,,inhibition (INH) [2]: Not Active
C/C(=N/Nc1nc(-c2ccc(C#N)cc2)cs1)c1ccco1,,,,,inhibition at 100 µM [1]: 40%; inhibition at 100 µM [2]: 40%
C/C(=N/Nc1nc(-c2ccc(C#N)cc2)cs1)c1ccccc1,,,,,inhibition at 100 µM [1]: 40%; inhibition at 100 µM [2]: 40%
O=[N+]([O-])c1ccc(-c2csc(N/N=C\c3c[nH]c4ccccc34)n2)cc1,Not Active,,,,inhibition (INH) [2]: Not Active
C/C(=N/Nc1nc(-c2ccc([N+](=O)[O-])cc2)cs1)c1cc2ccccc2oc1=O,Not Active,,,,inhibition (INH) [2]: Not Active
C/C(=N/Nc1nc(-c2ccc([N+](=O)[O-])cc2)cs1)c1ccccc1,,,,,inhibition at 100 µM [1]: 40%; inhibition at 100 µM [2]: 40%
Fc1ccc(-c2csc(N/N=C\c3ccco3)n2)c(F)c1,,217 nM,42,9110 nM,
C/C(=N/Nc1nc(-c2ccc(F)cc2F)cs1)c1ccccc1,,90.3 nM,235,21200 nM,
O=[N+]([O-])c1ccc(-c2csc(N/N=C\c3ccncc3)n2)cc1,Not Active,,,,inhibition (INH) [2]: Not Active
O=[N+]([O-])c1ccc(-c2csc(N/N=C\c3ccc4c(c3)OCO4)n2)cc1,Not Active,,,,inhibition (INH) [2]: Not Active

SMILES,inhibition (INH) [1],IC50 [3],Ratio IC50 (Homo sapiens),IC50 [5],further results
C/C(=N/Nc1nc(-c2ccc(F)cc2F)cs1)c1ccccn1,,,< 0.03,3040 nM,inhibition at 100 µM [2]: 40%
O=[N+]([O-])c1ccc(-c2csc(N/N=C\c3ccco3)n2)cc1,,,,,inhibition at 100 µM [1]: 40%; inhibition at 100 µM [2]: 40%
C/C(=N/Nc1nc(-c2ccc(C#N)cc2)cs1)c1ccncc1,,436 nM,44,19100 nM,
C/C(=N/Nc1nc(-c2ccc([N+](=O)[O-])cc2)cs1)c1nccs1,,366 nM,24,8970 nM,
C/C(=N/Nc1nc(-c2ccc(C#N)cc2)cs1)c1ccccn1,,996 nM,2.9,2850 nM,
C/C(=N/Nc1nc(-c2ccc(F)cc2)cs1)c1ccco1,,320 nM,18,5670 nM,
C/C(=N/Nc1nc(-c2ccc([N+](=O)[O-])cc2)cs1)c1ccccn1,,26.7 nM,1450,38700 nM,
C/C(=N/Nc1nc(-c2ccc(F)cc2F)cs1)c1ccc2ccccc2c1,Not Active,,,,inhibition at 100 µM [2]: 40%
Fc1ccc(-c2csc(N/N=C\c3cccs3)n2)cc1,,338 nM,> 295,,inhibition at 100 µM [1]: 40%
Fc1ccc(-c2csc(N/N=C\c3ccncc3)n2)c(F)c1,Not Active,549 nM,> 182,,
C/C(=N/Nc1nc(-c2ccc(C#N)cc2)cs1)c1ccc2ccccc2c1,Not Active,,,,inhibition at 100 µM [2]: 40%
Fc1ccc(-c2csc(N/N=C\c3ccc4c(c3)OCO4)n2)cc1,,1080 nM,> 93,,inhibition at 100 µM [1]: 40%
C/C(=N/Nc1nc(-c2ccc(F)cc2F)cs1)c1cccs1,,3.01 nM,> 33200,,inhibition at 100 µM [1]: 40%
O=C(NCCN1CCOCC1)c1ccc(Cl)cc1 [MOCLOBEMIDE],,,,,inhibition (INH) [2]: Not Active
C/C(=N/Nc1nc(-c2ccc(C#N)cc2)cs1)c1cc2ccccc2oc1=O,Not Active,,,,inhibition (INH) [2]: Not Active
C/C(=N/Nc1nc(-c2ccc(F)cc2)cs1)c1ccccn1,,24.3 nM,1720,41700 nM,
C/C(=N/Nc1nc(-c2ccc(C#N)cc2)cs1)c1cccs1,,3110 nM,> 32,,inhibition at 100 µM [1]: 40%
Fc1ccc(-c2csc(N/N=C\c3cccnc3)n2)c(F)c1,,199 nM,> 504,,inhibition at 100 µM [1]: 40%
C/C(=N/Nc1nc(-c2ccc(C#N)cc2)cs1)c1nccs1,,2000 nM,1.4,2850 nM,
C/C(=N/Nc1nc(-c2ccc(F)cc2F)cs1)c1ccncc1,,16.7 nM,> 5990,,inhibition at 100 µM [1]: 40%
